# According to US10017767B2, “Targets in multiple myeloma and other disorders” (FONDAZIONE CENTRO SAN RAFFAELE, priority 2012, dated 2018):
# How the values were obtained:
# [1] = system: MM.1S cells; assay: Apoptosis by Annexin V-FITC/PI staining, MM.1S; assay type: cell-based, human
# Method: (§1) In particular, cells were washed twice with room-temperature PBS, resuspended in 100 μL of Annexin binding buffer, and stained with specific antibodies for 20 minutes.
# [2] = MTT viability assay, U266; assay type: cell-based; settings: human, U266 multiple myeloma cells
# Method: (§2) Viability of MM cells was evaluated by 3-[4,5-dimethylthiazol-2-yl]-2,5-diphenyltetrazolium bromide (MTT) colorimetric survival assay. MM cells (20,000-50,000) were plated in 100 μL medium. At the various time points (24-96 hours), 10 μL 5 mg/mL MTT were added to plated cells. After 4 hour incubation at 37° C., medium was discarded and 100 μL MTT stop solution (Isopropanonol with […] Hcl) used to dissolve MTT metabolic products. Absorbance was read at 570 nm and background was subtracted at 630 nm, using spectrophotometer SPECTRAMAX M2 machine and Softmax Pro v5 software. Cellular growth was estimated by cell counting in triplicates, excluding dead cells stained by trypan blue.
# [3] = system: U266 MM cell line; assay: Apoptosis by Annexin V-FITC/PI staining, U266; assay type: cell-based
# Method: as §1
# [4] = system: ATM; assay: CHK2 (Thr68) phosphorylation immunoblot in MM cells; assay type: cell-based
# [5] = system: ABL1; assay: ABL1 cytoplasmic/nuclear localization by subcellular fractionation and Western blot in MM cell lines; assay type: cell-based; settings: 2-10 μM; 1, 2, 6 and 24 hs; MM.1S, H929, UTMC-2, JJN-3, KMS-20
# Method: (§3) MM cells were harvested and lysed using lysis buffer: 50 mMTris-HCl (pH 7.4), 150 mM NaCl, 1% NP-40, 5 mM EDTA, 5 mM NaF, 2 mM Na3VO4, 1 mM PMSF, 5 μg/mL leupeptine, and 5 μg/mL aprotinin. Nuclear extracts were prepared using Nuclear Extraction Kit (Panomics). Cell lysates were subjected to sodium dodecyl sulfate-polyacrylamide gel electrophoresis SDS-PAGE, transferred to nitrocellulose membranes, and immunoblotted with different antibodies: ATM, phospho-ATM (Ser1981), ATR, phospho-ATR (Ser428), CHK2, phospho-CHK2 (Thr68), CHK1, phospho-CHK1 (Ser296), p21, p53, phospho-p53 (ser127), STK4, LATS1, phospho-LATS1 (Ser909), phospho-ABL1 (Thr735), cleaved caspase 3, cleaved PARP, histone H3, SAPK/JNK, phospho-SAPK/JNK (Thr183/Tyr185), GM130, GAPDH, and α-tubulin (Cell Signaling); STK4, Nuclear Matrix Protein p84 (Abeam), p73 (BD), phospho-H2A.X (Ser139) (Millipore); as well as ABL1, BAX, Puma, Noxa, actin and nucleolin (Santa Cruz Biotechnology).
# [6] = system: UTMC-2 cells; settings: doxorubicin 40 nM, 48 h, before treatment 19.1%
# [7] = MTT viability assay, MM.1S; assay type: cell-based, human; settings: human, MM.1S multiple myeloma cells; MM.1S; doxorubicin 40 nM, 48 h; read-out: cell viability by MTT assay
# Method: as §2
# [8] = system: MM.1S and UTMC-2; assay: DNA damage markers and nuclear ABL1 in MM.1S and UTMC-2; assay type: cell-based, human; settings: doxorubicin 40 nM
# Method: as §3
# [9] = system: U266 MM cell line; assay: DNA damage markers and ABL1 localization in U266; assay type: cell-based; settings: doxorubicin 40 nM
# Method: MM cells were harvested and lysed using lysis buffer: 50 mMTris-HCl (pH 7.4), 150 mM NaCl, 1% NP-40, 5 mM EDTA, 5 mM NaF, 2 mM Na3VO4, 1 mM PMSF, 5 μg/mL leupeptine, and 5 μg/mL aprotinin. Nuclear extracts were prepared using Nuclear Extraction Kit (Panomics). […]
# 15,000 cells from MM cell lines, PBMCs or MM patient samples were cytospun for 5 minutes at 350-500 rpm, fixed in 4% paraformaldehyde (PFA) for 15 minutes, washed three times with PBS, and incubated with 0.1M glycin for 10 minutes to quench PFA autofluorescence. […] The slides were then mounted with ProLong Gold Antifade Reagent (Invitrogen), and images were taken using a Zeiss microscope (Carl Zeiss) equipped with Hamamatsu ORCA-ER camera (Hamamatsu Photonics) and analyzed with ImageJ software. […]
# [10] = system: UTMC-2 cells; assay: MTT assay, UTMC-2; assay type: cell-based, human; settings: doxorubicin 40 nM, 48 hours
# Method: as §2
# [11] = MTT assay, UTMC-2; assay type: cell-based, human; settings: human, UTMC-2 multiple myeloma cells; UTMC-2; doxorubicin 40 nM, 48 h; read-out: cell viability by MTT assay
# Method: as §2
# [12] = system: YAP1, p73; assay: Western blot of YAP1, p73 and p73 targets in MM.1S and U266; assay type: cell-based
# Method: as §3
# [13] = system: U266 cell line; assay: MTT viability assay, U266; assay type: cell-based; settings: 48 h
# Method: as §2
# [14] = system: MM.1S cells; assay: MTT viability assay, MM.1S; assay type: cell-based, human; settings: MM.1S YAP1-transfected; imatinib 10 μM from day 0
# Method: as §2
# [15] = MTT viability assay, KMS-20; assay type: cell-based; settings: human, KMS-20 multiple myeloma cells, LACZ-transfected; read-out: 48 hour viability (MTT, normalized to LACZ+DMSO)
# Method: as §2
# [16] = system: KMS-20 cells; assay: MTT viability assay, KMS-20; assay type: cell-based; settings: KMS-20 YAP1-transfected; imatinib 10 μM from day 0
# Method: as §2
# [17] = system: KMS-20 cells transfected with pLENTI4-YAP1-EGFP; assay: Apoptosis by Annexin V-PE/7AAD on GFP-positive YAP1-transfected cells; assay type: cell-based; settings: YAP1 reintroduced; with imatinib 10 μM
# Method: Cellular counting was performed in triplicate for each condition, with trypan blue exclusion. Right panel: Apoptosis by Annexin V-PE/7AAD, gating on GFP-positive cells. The percentage of viable cells (Annexin V-PE-/7AAD-cells) is shown at 48 hours.
# p-ENTR-YAP1-EGFP plasmid was kindly provided by Dr. Marius Sudol and subcloned into pLENTI4-V5DEST vector using GATEWAY strategy. p-LENTI4-LACZ vector was used as control. KMS-18, KMS-20, MM.1S, RPMI-8226 and UTMC-2 cells (5,000,000) cells were transiently transfected with p-LENTI4 YAP1, using ‘Cell Line Nucleofector Kit V (Amaxa Biosystems, Köln, Germany), according to the manufacturer's instructions. AMAXA program: MM.1S→T-030; RPMI-8226→C-015; KMS-18, KMS-20 and UTMC-2→X-001. Specifically, 5×10^6 cells were resuspended in 100 μL V solution and 2500 ng of plasmid. Following transfection, MM cells were subjected to mRNA analysis, Western blotting, as well as apoptosis, cell counting, and MTT assays.
# In particular, cells were washed twice with room-temperature PBS, resuspended in 100 μL of Annexin binding buffer, and stained with specific antibodies for 20 minutes. After adding other […] of Annexin binding buffer, samples were acquired using FACS Canto II machine from Becton Dickinson, BD, and analyzed with FCS EXPRESS 4 Flow Research Edition software.
# [18] = system: MM.1S MM cells; assay: MM.1S xenograft mouse model with inducible STK4 knockdown; assay type: in vivo, Fox Chase SCID mice; settings: subcutaneous, 6 weeks; scrambled shRNA tumors 1965 mm^3
# Method: A genetic approach conditionally knocking down STK4 in MM.1S cells was performed. In this study, MM.1S MM cells were infected with either inducible scrambled shRNAs, or inducible pLKO.1-TET shRNA #4 and pTRIPZ 63 directed against STK4 and then injected subcutaneously into three sites (left and right flank and interscapular region) in a group of 12 Fox Chase SCID mice.
# [19] = system: YAP1; assay: YAP1 knockdown by lentiviral shRNA; assay type: cell-based
# Method: Lentiviral short hairpin RNAs (shRNA) were used to knockdown YAP1 and STK4 expression in MM cells. Scrambled control pLKO.1 shRNA vectors and specific YAP1 and STK4 shRNA constructs were kindly provided by Dr. William Hahn (Dana-Farber Cancer Institute).
# The efficacy of each shRNA in silencing gene expression was tested in HCT-116 and HeLa cell lines using Mirus Bio Trans-IT LT1 transfection reagent. To obtain stable silenced clones with YAP1/STK4 shRNA or pLKO.1 control plasmid, the following protocol was used. 293T cells were plated (300,000 cells on 6-cm plates) in DMEM/10% FBS/0.1% P/S. After 24 hours when cells were 60-70% confluent, 1000 ng of vector of interest together with 100 ng p-VSV-G and 900 ng delta 8.94 (both packaging vectors purchased from Addgene) were co-transfected with MIRUS BIO TransIT-LT1 diluted in OPTI-MEM (GIBCO). After 12 hours, 293T media was changed with DMEM/[…] to promote viral production. 24 and 48 hours post transfection, supernatant containing lentiviral particles was harvested, filtered with 0.45 μM diameter filter, and used to infect 2.5×10^6 MM cells. […] After the second cycle of infection, cells were put under selection with a suitable concentration of puromycin. mRNA and protein expression were evaluated 48 and 72 hrs after selection. […]
compound,measurement,setting,value
CCOc1cc2ncc(C#N)c(Nc3ccc(OCc4ccccn4)c(Cl)c3)c2cc1NC(=O)/C=C/CN(C)C [HKI-272],apoptosis (Annexin V-FITC/PI),"[1]; 10 μM, untreated 11%",67%
same,"viability at 24 h, 10 µM","[2]; 10 μM, 24 h, read-out: 24 hour viability (MTT, normalized to DMSO)",98.2%
same,"viability at 48 h, 10 µM","[2]; 10 μM, 48 h, read-out: 48 hour viability (MTT, normalized to DMSO)",87.8%
same,"viability at 72 h, 10 µM","[2]; 10 μM, 72 h, read-out: 72 hour viability (MTT, normalized to DMSO)",56.9%
same,"viability at 96 h, 10 µM","[2]; 10 μM, 96 h, read-out: 96 hour viability (MTT, normalized to DMSO)",17.9%
same,apoptosis (Annexin V-PI),"[3]; 10 μM, untreated 10%",43%
O=c1cc(-c2cccc3c2Sc2ccccc2S3)oc(N2CCOCC2)c1 [Ku55933],CHK2 phosphorylation at Thr68,[4],reduction in CHK2 phosphorylation at Thr68
same,cytoplasmic and nuclear ABL1 levels,[5],"increase in the levels of cytoplasmic ABL1, and a concomitant strong reduction of nuclear ABL1"
COc1cccc2c1C(=O)c1c(O)c3c(c(O)c1C2=O)C[C@@](O)(C(=O)CO)C[C@@H]3O[C@H]1C[C@H](N)[C@H](O)[C@H](C)O1 [doxorubicin],apoptosis (Annexin V-FITC/PI),[6],57.8%
same,"viability at 48 h, 40 nM",[7],33.3%
same,"γ-H2AX, pATM, pJNK and nuclear ABL1",[8],"increase in γ-H2AX, pATM, and pJNK was evident, along with a major increase in nuclear ABL1"
same,ABL1 localization,[9],ABL1 moved to the nuclear compartment
same,"γ-H2A.X foci, pATM and pJNK phosphorylation",[9],induced multiple γ-H2A.X foci and strong pATM and pJNK phosphorylation
same,apoptosis (Annexin V-FITC/PI),"[1]; doxorubicin 40 nM, 48 h, before treatment 12.4%",55.3%
same,percentage of apoptotic cells by MTT assay,[10]; UTMC-2 control cells,37.4%
same,percentage of apoptotic cells by MTT assay,[10]; UTMC-2 stably YAP1-silenced,15.8%
same,"viability at 48 h, 40 nM",[11],66.5%
same,YAP1 and p73 protein levels,[12]; doxorubicin 40 nM,"induced YAP1, as well as p73"
same,"viability at 48 h, 40 nM","[2]; doxorubicin 40 nM, 48 h, read-out: viable cells (MTT assay)",50%
same,viable cells (MTT assay),[13]; doxorubicin 40 nM,52.8%
same,apoptotic cells (Annexin V and PI staining),"[3]; doxorubicin 40 nM, 48 h, before treatment 13.1%",40.1%
Cc1ccc(NC(=O)c2ccc(CN3CCN(C)CC3)cc2)cc1Nc1nccc(-c2cccnc2)n1 [imatinib],"48 hour viability (MTT, normalized to LACZ+DMSO)",[14],86.1%±20.6
same,"viability at 48 h, 10 µM",[15],103%
same,"48 hour viability (MTT, normalized to LACZ+DMSO)",[16],96.7%+8.9
same,apoptotic cells after reintroduction of YAP1,[17],9.1%
same,"YAP1, p73 and p73-target expression triggered by DNA-damaging agents",[12]; doxorubicin 40 nM with imatinib 10 μM,"stifled the increase in YAP1, p73 and p73-target expression"
same,viability at 10 µM,"[13]; Homo sapiens, U-266, 48 h, doxorubicin 40 nM with imatinib 10 μM, doxorubicin alone 52.8%",78.5%
pLKO.1-TET shRNA #4: inducible shRNA directed against STK4; clone #4 target sequence GCCAAGCGGAATACAGTGATA (the letters are possibly those of the target site),xenograft tumor growth,[18],no growth was evident
"shRNA #1: lentiviral shRNA targeting YAP1, CCCAGTTAAATGTTCACCAAT",knockdown of YAP1,[19],robust knockdown of YAP1
"shRNA #3: lentiviral shRNA targeting YAP1, CAGGTGATACTATCAACCAAA (the letters are possibly those of the target site)",knockdown of YAP1,[19],robust knockdown of YAP1
